Experimental data: patent US7388017B2, “Inhibitors of serine proteases, particularly hepatitis C virus NS3 protease” (Vertex Pharmaceuticals Incorporated, priority 1996, dated 2008)
Starred links: 1 amine or outer side, 2 acyl side, 3 side chain; linkers in the order of their positions; H or OH if unused. Non-standard residues stand in square brackets, D forms with d. Residues, ends and D or L forms follow the SMILES beside them. ξ: configuration not given here. *: point of attachment. X23 = CCC(N*)C(=O)c1ncc(-c2c(Cl)cccc2Cl)o1; Bip = N[CH](Cc1ccc(-c2ccccc2)cc1)C(=O)O; X45 = O=C([C@@H]1C2CC2CN1[*:1])[*:2]; 1Nal = N[CH](Cc1cccc2ccccc12)C(=O)O; 2Nal = N[CH](Cc1ccc2ccccc2c1)C(=O)O; Hydrocinnamoyl = O=C(CCc1ccccc1)*; Pyrazinecarbonyl = O=C(c1cnccn1)*; 3Pal = N[CH](Cc1cccnc1)C(=O)O; Hyp = O=C(O)[CH]1C[CH](O)CN1; X12 = CCC(N*)C(=O)c1nccs1; Abu = CC[CH](N)C(=O)O; CO = O=C([*:1])[*:2]; Bz = O=C(c1ccccc1)*; NHPh = c1ccc(N*)cc1; ξAbu = CCC(N)C(=O)O; Bn = c1ccc(C*)cc1

Target: T1, HCV NS3 protease (Hepatitis C virus genotype 1a, UniProt P27958)
T1 construct: more particularly HCV NS3 proteases
T1 sequence (P27958 1027-1208): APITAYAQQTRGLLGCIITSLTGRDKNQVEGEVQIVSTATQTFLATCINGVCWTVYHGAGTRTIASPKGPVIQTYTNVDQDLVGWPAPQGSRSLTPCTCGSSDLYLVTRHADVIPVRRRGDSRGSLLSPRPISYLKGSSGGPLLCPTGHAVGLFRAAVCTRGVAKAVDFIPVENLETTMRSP
Experiment: Enzyme inhibition of HCV NS3 serine protease (cleavage of peptide substrate / EDVV AbuC-p-nitroanilide, with or without NS4A)
Format: biochemical
Details: Enzyme inhibition data; Ki from rate vs [inhibitor] plots, Morrison tight binding competitive inhibition fit; 30 C, pH 7.8; read-out: Ki
How it was run: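 Spectrophotometric assay at 30 °C following pNA release at 405 nm from EDVV AbuC-pNA substrate, with or without NS4A. Ki from rate versus [inhibitor] fitted to Morrison's tight-binding competitive inhibition equation; Kii/Kis from mixed-inhibition fits; values reported in μM.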

Structure (SMILES): CCC(NC(=O)C(CC(C)C)NC(=O)C(NC(=O)C(NC(=O)C(CC(=O)O)NC(=O)C(N)CCC(=O)O)C(C)C)C(C)C)C(=O)c1nccs1 (stereo not shown) [Compound 125] (H-EDVVL-X12; configuration not given here)
- Ki: 1 to 100 µM

Structure (SMILES): CCC(NC(=O)C(CC(C)C)NC(=O)C(NC(=O)C(NC(=O)C(CC(=O)O)NC(=O)C(N)CCC(=O)O)C(C)C)C(C)C)C(=O)c1ncc(-c2c(Cl)cccc2Cl)o1 (stereo not shown) [Compound 126] (H-EDVVL-X23; configuration not given here)
- Ki: > 100 µM

Structure (SMILES): CCC(C=O)NC(=O)C1CC(OCc2ccccc2)CN1C(=O)C(NC(=O)C(Cc1cccnc1)NC(=O)c1cnccn1)C(C)C (stereo not shown) [Compound 127] (Pyrazinecarbonyl-[3Pal]V[Hyp](Bn)[Abu]-aldehyde; configuration not given here)
- Ki: > 100 µM

Structure (SMILES): CCC(C=O)NC(=O)C1CC(OCc2ccccc2)CN1C(=O)C(NC(=O)C(Cc1ccc(-c2ccccc2)cc1)NC(=O)c1cnccn1)C(C)C (stereo not shown) [Compound 130] (Pyrazinecarbonyl-[Bip]V[Hyp](Bn)[Abu]-aldehyde; configuration not given here)
- Ki: > 100 µM

Structure (SMILES): CCC(C=O)NC(=O)C1CC(OCc2ccccc2)CN1C(=O)C(NC(=O)C(Cc1cccc2ccccc12)NC(=O)c1cnccn1)C(C)C (stereo not shown) [Compound 131] (Pyrazinecarbonyl-[1Nal]V[Hyp](Bn)[Abu]-aldehyde; configuration not given here)
- Ki: 1 to 100 µM

Structure (SMILES): CCC(C=O)NC(=O)C1CC(OCc2ccccc2)CN1C(=O)C(NC(=O)C(Cc1ccc2ccccc2c1)NC(=O)c1cnccn1)C(C)C (stereo not shown) [Compound 132] (Pyrazinecarbonyl-[2Nal]V[Hyp](Bn)[Abu]-aldehyde; configuration not given here)
- Ki: 1 to 100 µM

Structure (SMILES): CCC(C=O)NC(=O)C1CC(OCc2ccccc2)CN1C(=O)C(NC(=O)C(Cc1c[nH]cn1)NC(=O)c1cnccn1)C(C)C (stereo not shown) [Compound 134] (Pyrazinecarbonyl-HV[Hyp](Bn)[Abu]-aldehyde; configuration not given here)
- Ki: > 100 µM

Structure (SMILES): CCC(C=O)NC(=O)C1CC(OCc2ccccc2)CN1C(=O)C(NC(=O)C(Cc1ccccc1)NC(=O)c1cnccn1)C(C)C (stereo not shown) [Compound 141] (Pyrazinecarbonyl-FV[Hyp](Bn)[Abu]-aldehyde; configuration not given here)
- Ki: 1 to 100 µM

Structure (SMILES): CCC(C=O)NC(=O)C1CC(OCc2ccccc2)CN1C(=O)C(NC(=O)C(NC(=O)c1cnccn1)C(C)OCc1ccccc1)C(C)C (stereo not shown) [Compound 142] (Pyrazinecarbonyl-T(Bn)V[Hyp](Bn)[Abu]-aldehyde; configuration not given here)
- Ki: 1 to 100 µM

Structure (SMILES): CCC(C=O)NC(=O)C1CC(OCc2ccccc2)CN1C(=O)C(NS(=O)(=O)Cc1ccccc1)C(C)C (stereo not shown) [Compound 143]
- Ki: > 100 µM

Structure (SMILES): CCC(C=O)NC(=O)C1CC(OCc2ccccc2)CN1C(=O)C(NS(=O)(=O)c1ccccc1)C(C)C (stereo not shown) [Compound 144]
- Ki: > 100 µM

Structure (SMILES): CCC(C=O)NC(=O)C1CC(OCc2ccccc2)CN1C(=O)C(NC(=O)Nc1ccccc1)C(C)C (stereo not shown) [Compound 145] ({NHPh-CO}-Val-[Hyp](Bn)-[Abu]-aldehyde; configuration not given here)
- Ki: 1 to 100 µM

Structure (SMILES): CCC(C=O)NC(=O)C1CC(OCc2ccccc2)CN1C(=O)C(NC(=O)CCc1ccccc1)C(C)C (stereo not shown) [Compound 147] (Hydrocinnamoyl-Val-[Hyp](Bn)-[Abu]-aldehyde; configuration not given here)
- Ki: > 100 µM

Structure (SMILES): CCC(C=O)NC(=O)C1CC(OCc2ccccc2)CN1C(=O)C(NC(=O)c1ccccc1)C(C)C (stereo not shown) [Compound 149] (Bz-Val-[Hyp](Bn)-[Abu]-aldehyde; configuration not given here)
- Ki: 1 to 100 µM

Structure (SMILES): CCC(C=O)NC(=O)C1CC(OCc2ccccc2)CN1C(=O)C(NC(=O)Cc1ccc(NC(C)=O)cc1)C(C)C (stereo not shown) [Compound 152]
- Ki: > 100 µM

Structure (SMILES): CCC(C=O)NC(=O)C1CC(OCc2ccccc2)CN1C(=O)C(NC(=O)c1ccc[nH]1)C(C)C (stereo not shown) [Compound 153]
- Ki: 1 to 100 µM

Structure (SMILES): CCC(C=O)NC(=O)C1CC(OCc2ccccc2)CN1C(=O)C(NC(=O)c1cc2ccccc2[nH]1)C(C)C (stereo not shown) [Compound 154]
- Ki: 1 to 100 µM

Structure (SMILES): CCC(C=O)NC(=O)C1CC(OCc2ccccc2)CN1C(=O)C(NC(=O)Cc1csc(N)n1)C(C)C (stereo not shown) [Compound 155]
- Ki: 1 to 100 µM

Structure (SMILES): CCC(C=O)NC(=O)C1CC(OCc2ccccc2)CN1C(=O)C(NC(=O)c1ccc(O)c(Cl)c1)C(C)C (stereo not shown) [Compound 156]
- Ki: 1 to 100 µM

Structure (SMILES): CCC(C=O)NC(=O)C1CC(OCc2ccccc2)CN1C(=O)C(NC(=O)c1nccc2ccccc12)C(C)C (stereo not shown) [Compound 158]
- Ki: 1 to 100 µM

Structure (SMILES): CCC(C=O)NC(=O)C1CC(OCc2ccccc2)CN1C(=O)C(NC(=O)c1cccc2ccccc12)C(C)C (stereo not shown) [Compound 159]
- Ki: 1 to 100 µM

Structure (SMILES): CCC(C=O)NC(=O)C1CC(OCc2ccccc2)CN1C(=O)C(NC(=O)Cc1ccccc1[N+](=O)[O-])C(C)C (stereo not shown) [Compound 161]
- Ki: > 100 µM

Structure (SMILES): CCC(C=O)NC(=O)C1CC(OCc2ccccc2)CN1C(=O)C(NC(=O)Cc1ccsc1)C(C)C (stereo not shown) [Compound 163]
- Ki: > 100 µM

Structure (SMILES): CCC(C=O)NC(=O)C1CC(OCc2ccccc2)CN1C(=O)C(NC(=O)C(OC)c1ccccc1)C(C)C (stereo not shown) [Compound 164]
- Ki: > 100 µM

Structure (SMILES): CCC(C=O)NC(=O)C1CC(OCc2ccccc2)CN1C(=O)C(NC(=O)CCCc1ccccc1)C(C)C (stereo not shown) [Compound 166]
- Ki: > 100 µM

Structure (SMILES): CCC(C=O)NC(=O)C1CC(OCc2ccccc2)CN1C(=O)C(NC(=O)c1c(O)ccc2ccccc12)C(C)C (stereo not shown) [Compound 168]
- Ki: 1 to 100 µM

Structure (SMILES): CCC(C=O)NC(=O)C1CC(OCc2ccccc2)CN1C(=O)C(NC(=O)COc1ccccc1C=O)C(C)C (stereo not shown) [Compound 169]
- Ki: > 100 µM

Structure (SMILES): CCC(C=O)NC(=O)C1CC(OCc2ccccc2)CN1C(=O)C(NC(=O)CCC(=O)c1ccccc1)C(C)C (stereo not shown) [Compound 170]
- Ki: > 100 µM

Structure (SMILES): CCC(C=O)NC(=O)C1CC(OCc2ccccc2)CN1C(=O)C(NC(=O)CCOc1ccccc1)C(C)C (stereo not shown) [Compound 171]
- Ki: > 100 µM

Structure (SMILES): CCCCC(C(=O)O)C(=O)NC(C(=O)N1CC(OCc2ccccc2)CC1C(=O)NC(C=O)CC)C(C)C (stereo not shown) [Compound 172]
- Ki: > 100 µM

Structure (SMILES): CCCC(C(=O)NC(C(=O)N1CC(OCc2ccccc2)CC1C(=O)NC(C=O)CC)C(C)C)c1ccccc1 (stereo not shown) [Compound 174]
- Ki: 1 to 100 µM

Structure (SMILES): CCC(C=O)NC(=O)C1CC(OCc2ccccc2)CN1C(=O)C(NC(=O)c1c[nH]c2ccccc12)C(C)C (stereo not shown) [Compound 175]
- Ki: 1 to 100 µM

Structure (SMILES): CCC(C=O)NC(=O)C1CC(OCc2ccccc2)CN1C(=O)C(NC(=O)C1CCCC1c1ccccc1)C(C)C (stereo not shown) [Compound 177]
- Ki: > 100 µM

Structure (SMILES): CCC(C=O)NC(=O)C1CC(OCc2ccccc2)CN1C(=O)C(NC(=O)c1c(-c2ccccc2Cl)noc1C)C(C)C (stereo not shown) [Compound 182]
- Ki: > 100 µM

Structure (SMILES): CCC(C=O)NC(=O)C1CC(OCc2ccccc2)CN1C(=O)C(NC(=O)c1c2c(nc3ccccc13)CCCC2)C(C)C (stereo not shown) [Compound 183]
- Ki: 1 to 100 µM

Structure (SMILES): CCC(C=O)NC(=O)C1CC(OCc2ccccc2)CN1C(=O)C(NC(=O)c1c(-c2c(Cl)cccc2Cl)noc1C)C(C)C (stereo not shown) [Compound 186]
- Ki: > 100 µM

Structure (SMILES): CCC(C=O)NC(=O)C1CC(OCc2ccccc2)CN1C(=O)C(NC(=O)c1cc(C)oc1C)C(C)C (stereo not shown) [Compound 189]
- Ki: > 100 µM

Structure (SMILES): CCC(C=O)NC(=O)C1CC(OCc2ccccc2)CN1C(=O)C(NC(=O)c1c(C)cc(C)cc1C)C(C)C (stereo not shown) [Compound 191]
- Ki: > 100 µM

Structure (SMILES): CCC(C=O)NC(=O)C1CC(OCc2ccccc2)CN1C(=O)C(NC(=O)c1cccc(C)c1O)C(C)C (stereo not shown) [Compound 192]
- Ki: > 100 µM

Structure (SMILES): CCC(C=O)NC(=O)C1CC(OCc2ccccc2)CN1C(=O)C(NC(=O)c1c(C)cccc1C)C(C)C (stereo not shown) [Compound 193]
- Ki: > 100 µM

Structure (SMILES): CCC(C=O)NC(=O)C1CC(OCc2ccccc2)CN1C(=O)C(NC(=O)c1ccccc1Br)C(C)C (stereo not shown) [Compound 195]
- Ki: 1 to 100 µM

Structure (SMILES): CCOc1ccc2ccccc2c1C(=O)NC(C(=O)N1CC(OCc2ccccc2)CC1C(=O)NC(C=O)CC)C(C)C (stereo not shown) [Compound 197]
- Ki: 1 to 100 µM

Structure (SMILES): CCC(C=O)NC(=O)[C@@H]1C2CC2CN1C(=O)[C@@H](NC(=O)[C@@H](NC(=O)[C@H](CC(=O)O)NC(=O)[C@H](CCC(=O)O)NC(C)=O)C(C)C)C(C)C (stereo partly shown) [Compound 198] (Ac-EDVV[X45][ξAbu]-aldehyde)
- Ki: < 1 µM
